Results from the supplement of paper PMC6045584.
± gives the standard deviation of the averaged measurements.

Legend:
LENVATINIB = compound: COc1cc2nccc(Oc3ccc(NC(=O)NC4CC4)c(Cl)c3)c2cc1C(N)=O [LENVATINIB]; assay: surviving fraction relative to DMSO-only wells; higher = less growth inhibition; conditions: exposure time: 5 days
Procedure, shortened: (§1)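 Log-phase tumour cell lines, 250–500 cells per well in 384-well plates, received inhibitors at 0.5, 1, 5, 10, 50, 100, 500 and 1000 nM continuously for five days, starting 24 hours after seeding. Viability was quantified with CellTiter-Glo luminescence and normalised to the median of DMSO-only wells to give surviving fraction. Three screens were run per line, and a line stayed in only with replicate Pearson r >0.7 and median Z' >0.3.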

VORINOSTAT = compound: O=C(CCCCCCC(=O)Nc1ccccc1)NO [VORINOSTAT]; assay: as above; conditions: exposure time: 5 days
Procedure, shortened: as §1

Test System | surviving fraction (LENVATINIB; 0.5 nM) | surviving fraction (LENVATINIB; 1 nM) | surviving fraction (LENVATINIB; 5 nM) | surviving fraction (LENVATINIB; 10 nM) | surviving fraction (LENVATINIB; 50 nM) | surviving fraction (LENVATINIB; 100 nM) | surviving fraction (LENVATINIB; 500 nM) | surviving fraction (LENVATINIB; 1000 nM) | surviving fraction (VORINOSTAT; 0.5 nM) | surviving fraction (VORINOSTAT; 1 nM) | surviving fraction (VORINOSTAT; 5 nM) | surviving fraction (VORINOSTAT; 10 nM) | surviving fraction (VORINOSTAT; 50 nM) | surviving fraction (VORINOSTAT; 100 nM) | surviving fraction (VORINOSTAT; 500 nM) | surviving fraction (VORINOSTAT; 1000 nM)
MG63 BONE | 1.02 ± 0.075 | 1.03 ± 0.06 | 1.08 ± 0.065 | 0.999 ± 0.032 | 0.965 ± 0.061 | 0.865 ± 0.065 | 0.666 ± 0.059 | 0.584 ± 0.029 | 1.03 ± 0.021 | 0.98033 ± 0.00058 | 1.058 ± 0.0097 | 1.02 ± 0.038 | 1.081 ± 0.0029 | 1.121 ± 0.011 | 1.02 ± 0.019 | 0.8407 ± 0.0078
HOSMNG BONE | 1.02 ± 0.036 | 1.03 ± 0.023 | 0.964 ± 0.06 | 1.02 ± 0.043 | 1.11 ± 0.033 | 1.07 ± 0.036 | 1.09 ± 0.067 | 1.05 ± 0.091 | 0.994 ± 0.12 | 0.94 ± 0.091 | 0.996 ± 0.17 | 1.06 ± 0.064 | 0.999 ± 0.048 | 1.09 ± 0.063 | 1.06 ± 0.023 | 1.09 ± 0.02
C33A CERVIX | 0.874 ± 0.037 | 0.937 ± 0.094 | 1 ± 0.14 | 1 ± 0.11 | 1.06 ± 0.097 | 1.14 ± 0.056 | 1.02 ± 0.1 | 0.955 ± 0.088 | 0.86 ± 0.078 | 0.952 ± 0.064 | 1.04 ± 0.031 | 1.05 ± 0.098 | 1.04 ± 0.15 | 1.05 ± 0.096 | 0.805 ± 0.014 | 0.615 ± 0.048
BT20 BREAST | 1.15 ± 0.07 | 1.2 ± 0.077 | 1.21 ± 0.093 | 1.01 ± 0.15 | 1.05 ± 0.088 | 1.05 ± 0.16 | 1.24 ± 0.16 | 1.08 ± 0.2 | 1.05 ± 0.17 | 1.09 ± 0.21 | 1.06 ± 0.17 | 1.05 ± 0.2 | 0.941 ± 0.21 | 0.943 ± 0.22 | 0.872 ± 0.19 | 0.491 ± 0.12
MDAMB231 BREAST | 1.01 ± 0.029 | 1.02 ± 0.025 | 1.03 ± 0.033 | 1.02 ± 0.011 | 0.988 ± 0.012 | 1.02 ± 0.032 | 0.913 ± 0.032 | 0.882 ± 0.025 | 0.995 ± 0.015 | 1 ± 0.017 | 0.993 ± 0.03 | 0.983 ± 0.025 | 1.01 ± 0.028 | 0.971 ± 0.042 | 0.805 ± 0.02 | 0.358 ± 0.0067
SG27 HEADNECK | 1.15 ± 0.18 | 1.11 ± 0.028 | 1.12 ± 0.093 | 1.1 ± 0.052 | 1.04 ± 0.21 | 0.985 ± 0.13 | 0.928 ± 0.025 | 0.957 ± 0.055 | 1.22 ± 0.15 | 1.05 ± 0.089 | 1.01 ± 0.13 | 1.08 ± 0.048 | 0.989 ± 0.1 | 0.955 ± 0.088 | 0.824 ± 0.097 | 0.755 ± 0.048
SYO1 SYNOVIAL | 0.942 ± 0.11 | 0.962 ± 0.025 | 0.918 ± 0.017 | 0.889 ± 0.042 | 0.768 ± 0.079 | 0.667 ± 0.042 | 0.528 ± 0.031 | 0.504 ± 0.02 | 0.942 ± 0.068 | 0.895 ± 0.083 | 0.945 ± 0.055 | 0.836 ± 0.025 | 1.03 ± 0.088 | 1.057 ± 0.0096 | 0.563 ± 0.022 | 0.222 ± 0.012
HUO3N1 BONE | 1.05 ± 0.057 | 1.04 ± 0.058 | 1.03 ± 0.013 | 0.961 ± 0.053 | 0.967 ± 0.034 | 0.876 ± 0.018 | 0.764 ± 0.0072 | 0.676 ± 0.051 | 1.03 ± 0.016 | 0.975 ± 0.051 | 0.988 ± 0.027 | 0.964 ± 0.032 | 1.012 ± 0.0098 | 1.06 ± 0.081 | 0.987 ± 0.032 | 0.559 ± 0.011
H23 LUNG | 1.03 ± 0.054 | 1.05 ± 0.06 | 1.06 ± 0.079 | 1.05 ± 0.08 | 1.05 ± 0.049 | 1.12 ± 0.074 | 1.15 ± 0.068 | 1.17 ± 0.069 | 1.04 ± 0.048 | 0.983 ± 0.034 | 1.04 ± 0.036 | 1 ± 0.0087 | 1.18 ± 0.034 | 1.27 ± 0.037 | 1.44 ± 0.1 | 1.29 ± 0.062
ASKA SYNOVIAL | 1.12 ± 0.063 | 1.04 ± 0.045 | 1.13 ± 0.082 | 1.12 ± 0.1 | 1.19 ± 0.11 | 1.21 ± 0.024 | 1.09 ± 0.044 | 1.04 ± 0.041 | 1.01 ± 0.033 | 1.03 ± 0.038 | 1.08 ± 0.045 | 0.951 ± 0.022 | 1.05 ± 0.015 | 1.01 ± 0.018 | 0.724 ± 0.024 | 0.525 ± 0.028
PCI30 HEADNECK | 0.998 ± 0.031 | 1.08 ± 0.06 | 1.06 ± 0.082 | 1.07 ± 0.057 | 1.14 ± 0.084 | 1.11 ± 0.08 | 1.11 ± 0.073 | 1.17 ± 0.06 | 0.958 ± 0.064 | 0.982 ± 0.079 | 0.933 ± 0.087 | 1.01 ± 0.039 | 1.07 ± 0.053 | 0.962 ± 0.066 | 0.88 ± 0.064 | 0.735 ± 0.059
T47D BREAST | 1.09 ± 0.018 | 1.09 ± 0.018 | 1.08 ± 0.044 | 1.06 ± 0.057 | 1.1 ± 0.028 | 1.13 ± 0.046 | 1.12 ± 0.064 | 1.1 ± 0.023 | 0.967 ± 0.026 | 1.01 ± 0.02 | 1.02 ± 0.042 | 1.013 ± 0.006 | 1.08 ± 0.057 | 1.05 ± 0.043 | 0.785 ± 0.02 | 0.449 ± 0.028
COLO320DM LARGE INTESTINE | 1.16 ± 0.058 | 1.1 ± 0.077 | 1.05 ± 0.053 | 1.1 ± 0.18 | 1.17 ± 0.033 | 1.1 ± 0.072 | 1.14 ± 0.067 | 1.11 ± 0.068 | 1.1 ± 0.13 | 1.18 ± 0.15 | 1.12 ± 0.086 | 1.04 ± 0.049 | 1.22 ± 0.17 | 1.07 ± 0.14 | 0.577 ± 0.041 | 0.177 ± 0.0091
HCC1806 BREAST | 1.02 ± 0.018 | 0.932 ± 0.099 | 1.12 ± 0.13 | 1.13 ± 0.089 | 1.24 ± 0.079 | 1.1 ± 0.13 | 0.961 ± 0.088 | 0.941 ± 0.13 | 1.13 ± 0.16 | 0.721 ± 0.61 | 0.825 ± 0.54 | 0.77 ± 0.64 | 1.18 ± 0.051 | 1.24 ± 0.16 | 0.852 ± 0.073 | 0.527 ± 0.089
HSSYII SYNOVIAL | 0.933 ± 0.057 | 0.961 ± 0.028 | 0.952 ± 0.018 | 0.942 ± 0.06 | 0.842 ± 0.026 | 0.724 ± 0.024 | 0.38 ± 0.024 | 0.3 ± 0.017 | 0.913 ± 0.023 | 0.87 ± 0.025 | 0.927 ± 0.044 | 0.873 ± 0.016 | 1.06 ± 0.25 | 0.858 ± 0.066 | 0.436 ± 0.012 | 0.201 ± 0.011
MFM223 BREAST | 1.16 ± 0.069 | 1.08 ± 0.12 | 1.09 ± 0.077 | 1.12 ± 0.024 | 1.06 ± 0.13 | 0.813 ± 0.053 | 0.336 ± 0.02 | 0.29 ± 0.014 | 1.05 ± 0.16 | 1.09 ± 0.047 | 1.13 ± 0.034 | 1.04 ± 0.043 | 1.18 ± 0.028 | 1.08 ± 0.03 | 0.738 ± 0.086 | 0.361 ± 0.029
MDAMB468 BREAST | 1.04 ± 0.059 | 1.12 ± 0.047 | 1.11 ± 0.092 | 1.09 ± 0.016 | 1.14 ± 0.086 | 1.1 ± 0.1 | 1.1 ± 0.056 | 1.05 ± 0.05 | 0.891 ± 0.052 | 0.951 ± 0.03 | 1 ± 0.044 | 0.978 ± 0.023 | 1.12 ± 0.061 | 1.133 ± 0.007 | 0.818 ± 0.036 | 0.469 ± 0.007
HCC78 LUNG | 1.08 ± 0.28 | 1.02 ± 0.24 | 0.93 ± 0.32 | 1.04 ± 0.22 | 1.08 ± 0.044 | 1.07 ± 0.22 | 1.02 ± 0.1 | 0.978 ± 0.14 | 1.01 ± 0.12 | 0.818 ± 0.22 | 0.852 ± 0.12 | 1 ± 0.091 | 0.947 ± 0.22 | 1.06 ± 0.019 | 0.326 ± 0.042 | 0.0463 ± 0.011
NCIH441 LUNG | 1.02 ± 0.12 | 1.11 ± 0.1 | 1.07 ± 0.11 | 1 ± 0.019 | 0.994 ± 0.083 | 1.09 ± 0.041 | 1.09 ± 0.075 | 1.01 ± 0.04 | 1.12 ± 0.041 | 1.02 ± 0.089 | 1.06 ± 0.033 | 1.04 ± 0.038 | 1.14 ± 0.02 | 0.959 ± 0.086 | 0.939 ± 0.024 | 0.546 ± 0.045
CADOES1 SOFT TISSUE | 0.975 ± 0.14 | 0.885 ± 0.14 | 0.859 ± 0.14 | 0.885 ± 0.049 | 0.897 ± 0.1 | 0.836 ± 0.11 | 0.839 ± 0.075 | 0.842 ± 0.17 | 0.968 ± 0.063 | 0.916 ± 0.028 | 0.865 ± 0.096 | 0.824 ± 0.057 | 0.71 ± 0.23 | 0.397 ± 0.23 | 0.242 ± 0.057 | 0.0883 ± 0.016
